# Test results as given in patent US5877210A, “Phosphotyrosine phosphatase inhibitors or phosphotyrosine kinase activators for controlling cellular proliferation” (priority 1995, dated 1999).
# Where “and” joins values, the source holds several entries; their conditions need not be identical. Equal entries are not always repeated. Entries after “also recorded” stand apart in the source; their conditions may differ.
# Assays:
# Jurkat = test: [3H]thymidine incorporation assay; format: cell-based, human; conditions: for [3H]cpm incorporation: seven days
# Method: (§1) For each cell type, the cells were passaged uniformly for all drug doses given during the seven-day period. The cells were then pulsed for six hours with [^3 H]thymidine. The extent of DNA synthesis was then determined by counting the radioactivity incorporated into the cells.
# (§2) For assays of cellular proliferation, cells were grown five days in the presence of the indicated concentrations of BMLOV, pulsed 6 hr with [^3 H]-thymidine (New England Nuclear, Boston, Mass.), and counted in a liquid scintillation counter. Human peripheral blood lymphocytes (PBL) from normal volunteers were isolated from lymphocyte separation medium (Litton Bionetics, Kensington, Md.) by density gradient centrifugation. Monocytes were depleted from PBL by two rounds of plastic absorption for 30 minutes at 37° C. B cells were enriched for by negative selection using complement plus monoclonal antibodies to CD2, CD3, CD4, and CD8 for complement depletion. Clonogenic assays of colony formation in methylcellulose medium were performed as previously described (F. M. Uckun et al. (1992), supra).
# THP-1 = test: [3H]thymidine incorporation assay; format: cell-based, human; conditions: for [3H]cpm incorporation: seven days
# Method: as §1, §2
# CEM = test: [3H]thymidine incorporation assay; format: cell-based, human; conditions: for [3H]cpm incorporation: seven days
# Method: as §1, §2
# HL-60 = test: [3H]thymidine incorporation assay; format: cell-based, human; conditions: for [3H]cpm incorporation: seven days
# Method: as §1, §2
# [1] = system: normal peripheral B cells; conditions: human, 120 h, 25 µM
# Method: Cell death was measured by staining cells with propidium iodine followed by flow cytometry (EPICS C, Coulter) as previously described (N. K. Damle et al. (1993), supra; Y. Liu & C. A. J. Janeway, "Interferon Gamma Plays a Critical Role in Induced Cell Death of Effector T Cells: A Possible Third Mechanism of Self-Tolerance," J. Exp. Med. 172:1735-1739 (1990)). Flow cytometric data on forward scatter and red fluorescence arising from propidium iodine binding to cellular DNA was collected for 5,000 cells and analyzed by the Quadstat Program (N. K. Damle, (1993), supra). The membranes of dead cells are permeable to propidium iodine (Y. Liu & C. A. Janeway, (1990), supra), but cells undergoing the process of apoptosis can shrink in size while temporarily maintaining plasma membrane integrity (J. J. Cohen et al., "Apoptosis and Programmed Cell Death and Immunity," Annu. Rev. Immunol. 10:267-293 (1992)). […] Only cells displaying normal size and resistance to staining by propidium iodide are considered viable cells and are found in the lower left quadrant (M. K. Damle et al. (1993), supra). The percentage of cells in each quadrant was calculated by the Quadstat program. […]
# To provide a final measure of cell death, propidium iodide staining of cells was used. […] Viability was measured by staining with propidium iodide followed by flow cytometric analysis as described above. […]
# [2] = system: murine B cell lymphoma A20 cells; test: Anti-phosphotyrosine immunoblot; format: cell-based; conditions: 16 hr
# Ramos B cells [3] = test: Viability by propidium iodide staining and flow cytometry; format: cell-based, human; conditions: 25 μM BMLOV, 4 days (FIG. 15B) or 5 d (FIG. 30)
# Text: The extent to which the T cells were being killed by BMLOV treatment relative to the Ramos B cells was therefore examined. […] The percentage of cells in each quadrant is indicated. The lower right quadrant contains the viable cells.
# Ramos B cells [4] = format: cell-based, human
# Text: These effects were synergistic rather than additive in that an approximately 5-fold enhancement in sensitization for the combination treatment was observed relative to expected additive effects based on the use of either treatment alone.
# HL-60 cells = test: Anti-phosphotyrosine immunoblot; format: cell-based, human
# [5] = system: peripheral blood lymphocytes; test: Leukocyte counts in mice after pV(phen); format: in vivo, BALB/C mice; conditions: one dose i.p.; for Absolute Counts: Eosinophil / Absolute Counts: Lymphocyte / Absolute Counts: Monocyte / Absolute Counts: Neutrophil: blood 24 hr later, individual animals
# Text: BALB/C mice received one dose of pV(phen) i.p. and their blood was examined 24 hr later.
compound,measurement,setting,value
"Cc1occc(=O)c1[O-].Cc1occc(=O)c1[O-].[O]=[V+2] [BMLOV, Bis(maltolato)oxovanadium (IV)]",[3H]cpm incorporation,Jurkat; 1 μM BMLOV,149950 cpm
same,[3H]cpm incorporation,Jurkat; 5 μM BMLOV,118720 cpm
same,[3H]cpm incorporation,Jurkat; 10 μM BMLOV,98057 cpm
same,[3H]cpm incorporation,Jurkat; 25 μM BMLOV,26511 cpm
same,"sensitivity of proliferation to BMLOV, in words","Jurkat; 25 μM, 5 or 7 days",moderately sensitive; also recorded: substantially inhibited
same,[3H]cpm incorporation,THP-1; 1 μM BMLOV,201670 cpm
same,[3H]cpm incorporation,THP-1; 5 μM BMLOV,178290 cpm
same,[3H]cpm incorporation,THP-1; 10 μM BMLOV,199993 cpm
same,[3H]cpm incorporation,THP-1; 25 μM BMLOV,112209 cpm
same,"sensitivity of proliferation to BMLOV, in words","THP-1; 25 μM, 5 or 7 days",only partial sensitivity; also recorded: showed an inhibition of growth
same,[3H]cpm incorporation,CEM; 1 μM BMLOV,368721 cpm
same,[3H]cpm incorporation,CEM; 5 μM BMLOV,403576 cpm
same,[3H]cpm incorporation,CEM; 10 μM BMLOV,371256 cpm
same,[3H]cpm incorporation,CEM; 25 μM BMLOV,313714 cpm
same,"sensitivity of proliferation to BMLOV, in words","CEM; 25 μM, 5 or 7 days",resistant; also recorded: only small effects
same,[3H]cpm incorporation,HL-60; 1 μM BMLOV,191637 cpm
same,[3H]cpm incorporation,HL-60; 5 μM BMLOV,276505 cpm
same,[3H]cpm incorporation,HL-60; 10 μM BMLOV,222178 cpm
same,[3H]cpm incorporation,HL-60; 25 μM BMLOV,11398 cpm
same,"sensitivity of proliferation to BMLOV, in words","HL-60; 25 μM, 5 or 7 days",moderately sensitive; also recorded: showed an inhibition of growth
same,viable cells,[1],27%
same,induction of tyrosine phosphorylation,[2],highly responsive
same,"killing by BMLOV, in words",Ramos B cells [3],substantially more sensitive to killing; also recorded: completely killed
same,enhancement in sensitization relative to expected additive effects,Ramos B cells [4]; combination of BMLOV and radiation,approximately 5 fold
same,increase in cell death relative to radiation alone,"Ramos B cells [4]; ramos b cells, 1 µM",10 fold
same,increase in clonogenic cell death relative to radiation alone,"Ramos B cells [4]; ramos b cells, 2 µM",50 fold
same,tyrosine phosphorylation response,HL-60 cells,showed a tyrosine phosphorylation response; also recorded: strong tyrosine phosphorylation was observed
"[Na+].[O]=[V-]12([O][O]1)[O][O]2.c1cnc2c(c1)ccc1cccnc12 [pV(phen), sodium (1,10-phenanthroline) oxodiperoxovanadium (V)]",Absolute Counts: Eosinophil,[5]; Dose 1 μM,244 and 26
same,Absolute Counts: Lymphocyte,[5]; Dose 1 μM,3848 and 1612
same,Absolute Counts: Monocyte,[5]; Dose 1 μM,488 and 104
same,Absolute Counts: Neutrophil,[5]; Dose 1 μM,1525 and 858
same,Absolute Counts: Eosinophil,[5]; Dose 2 μM,78 and 81
same,Absolute Counts: Lymphocyte,[5]; Dose 2 μM,1560 and 2511
same,Absolute Counts: Monocyte,[5]; Dose 2 μM,390 and 0
same,Absolute Counts: Neutrophil,[5]; Dose 2 μM,1872 and 5508
same,"effect on monocytes, in words",[5]; 24 hr,no consistent effect was observed
same,"number of neutrophils, in words",[5]; 24 hr,substantially increased
same,"number of peripheral blood lymphocytes, in words",[5]; 24 hr,markedly reduced
